Data published in publication PMC4858680, “A platinum-based hybrid drug design approach to circumvent acquired resistance to molecular targeted tyrosine kinase inhibitors” (Scientific Reports, 2016).

Assays:
[1] = target: T1, PDGFRB (Homo sapiens, UniProt P09619); experiment: biochemical; conditions: read-out: Percent control
[2] = target: TIE2 (Homo sapiens, UniProt Q02763); conditions: 10 μM
[3] = target: KIT(V559D) (Homo sapiens, UniProt P10721, V559D); experiment: biochemical; conditions: read-out: Percent control
Chain of KIT(V559D) (P10721 26-976 V559D): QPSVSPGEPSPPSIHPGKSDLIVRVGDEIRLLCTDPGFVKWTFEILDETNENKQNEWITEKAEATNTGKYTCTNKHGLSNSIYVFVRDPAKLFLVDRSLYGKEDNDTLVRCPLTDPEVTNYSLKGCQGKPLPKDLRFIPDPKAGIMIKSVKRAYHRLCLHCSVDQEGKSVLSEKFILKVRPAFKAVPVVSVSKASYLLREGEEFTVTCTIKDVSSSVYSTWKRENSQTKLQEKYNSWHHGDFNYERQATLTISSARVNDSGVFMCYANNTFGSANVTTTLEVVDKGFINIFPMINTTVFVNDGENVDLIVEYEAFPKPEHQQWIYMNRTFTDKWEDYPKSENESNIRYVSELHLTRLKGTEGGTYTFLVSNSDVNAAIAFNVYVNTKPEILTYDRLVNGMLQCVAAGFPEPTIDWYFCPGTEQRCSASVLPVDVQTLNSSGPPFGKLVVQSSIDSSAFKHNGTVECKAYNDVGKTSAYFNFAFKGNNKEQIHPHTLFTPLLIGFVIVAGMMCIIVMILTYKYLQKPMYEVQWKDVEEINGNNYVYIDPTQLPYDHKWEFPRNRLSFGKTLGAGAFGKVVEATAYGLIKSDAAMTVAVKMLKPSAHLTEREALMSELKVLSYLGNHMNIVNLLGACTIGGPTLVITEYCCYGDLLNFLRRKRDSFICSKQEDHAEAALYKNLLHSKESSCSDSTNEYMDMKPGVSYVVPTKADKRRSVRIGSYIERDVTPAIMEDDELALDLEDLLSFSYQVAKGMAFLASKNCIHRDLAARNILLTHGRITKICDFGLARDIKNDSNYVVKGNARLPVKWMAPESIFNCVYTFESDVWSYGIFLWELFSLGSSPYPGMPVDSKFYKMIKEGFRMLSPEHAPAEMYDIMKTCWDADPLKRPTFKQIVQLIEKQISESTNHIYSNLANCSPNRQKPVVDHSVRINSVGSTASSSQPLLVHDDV

[4] = target: KIT (Homo sapiens, UniProt P10721); experiment: biochemical; conditions: read-out: Percent control
Chain of KIT (P10721 26-976): as the sequence (P10721 26-976 V559D) above, with D534V counted along it

[5] = target: T2, ZAP70 (Homo sapiens, UniProt P43403); conditions: 10 μM
T2 sequence (P43403 1-619): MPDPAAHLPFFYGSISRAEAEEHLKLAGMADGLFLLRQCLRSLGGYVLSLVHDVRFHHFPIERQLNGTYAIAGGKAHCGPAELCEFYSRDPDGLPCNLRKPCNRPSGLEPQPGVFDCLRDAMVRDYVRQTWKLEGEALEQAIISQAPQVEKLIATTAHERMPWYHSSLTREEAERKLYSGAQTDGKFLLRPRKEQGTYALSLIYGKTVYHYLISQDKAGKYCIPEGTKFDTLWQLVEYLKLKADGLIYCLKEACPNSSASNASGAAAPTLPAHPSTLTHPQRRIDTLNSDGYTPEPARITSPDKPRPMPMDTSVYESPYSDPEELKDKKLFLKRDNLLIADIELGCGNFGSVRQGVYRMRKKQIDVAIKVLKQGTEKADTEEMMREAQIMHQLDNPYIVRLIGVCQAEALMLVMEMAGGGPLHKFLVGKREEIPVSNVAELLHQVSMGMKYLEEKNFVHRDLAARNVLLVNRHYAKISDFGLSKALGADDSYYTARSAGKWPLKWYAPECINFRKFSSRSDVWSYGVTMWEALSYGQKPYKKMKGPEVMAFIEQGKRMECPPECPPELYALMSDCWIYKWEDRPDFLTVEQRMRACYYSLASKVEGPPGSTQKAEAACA

[6] = target: T1, PDGFRB; conditions: 10 μM
[7] = target: MET(Y1235D) (Homo sapiens, UniProt P08581, Y1235D); conditions: 10 μM
Chain of MET(Y1235D) (P08581 25-1390 Y1235D): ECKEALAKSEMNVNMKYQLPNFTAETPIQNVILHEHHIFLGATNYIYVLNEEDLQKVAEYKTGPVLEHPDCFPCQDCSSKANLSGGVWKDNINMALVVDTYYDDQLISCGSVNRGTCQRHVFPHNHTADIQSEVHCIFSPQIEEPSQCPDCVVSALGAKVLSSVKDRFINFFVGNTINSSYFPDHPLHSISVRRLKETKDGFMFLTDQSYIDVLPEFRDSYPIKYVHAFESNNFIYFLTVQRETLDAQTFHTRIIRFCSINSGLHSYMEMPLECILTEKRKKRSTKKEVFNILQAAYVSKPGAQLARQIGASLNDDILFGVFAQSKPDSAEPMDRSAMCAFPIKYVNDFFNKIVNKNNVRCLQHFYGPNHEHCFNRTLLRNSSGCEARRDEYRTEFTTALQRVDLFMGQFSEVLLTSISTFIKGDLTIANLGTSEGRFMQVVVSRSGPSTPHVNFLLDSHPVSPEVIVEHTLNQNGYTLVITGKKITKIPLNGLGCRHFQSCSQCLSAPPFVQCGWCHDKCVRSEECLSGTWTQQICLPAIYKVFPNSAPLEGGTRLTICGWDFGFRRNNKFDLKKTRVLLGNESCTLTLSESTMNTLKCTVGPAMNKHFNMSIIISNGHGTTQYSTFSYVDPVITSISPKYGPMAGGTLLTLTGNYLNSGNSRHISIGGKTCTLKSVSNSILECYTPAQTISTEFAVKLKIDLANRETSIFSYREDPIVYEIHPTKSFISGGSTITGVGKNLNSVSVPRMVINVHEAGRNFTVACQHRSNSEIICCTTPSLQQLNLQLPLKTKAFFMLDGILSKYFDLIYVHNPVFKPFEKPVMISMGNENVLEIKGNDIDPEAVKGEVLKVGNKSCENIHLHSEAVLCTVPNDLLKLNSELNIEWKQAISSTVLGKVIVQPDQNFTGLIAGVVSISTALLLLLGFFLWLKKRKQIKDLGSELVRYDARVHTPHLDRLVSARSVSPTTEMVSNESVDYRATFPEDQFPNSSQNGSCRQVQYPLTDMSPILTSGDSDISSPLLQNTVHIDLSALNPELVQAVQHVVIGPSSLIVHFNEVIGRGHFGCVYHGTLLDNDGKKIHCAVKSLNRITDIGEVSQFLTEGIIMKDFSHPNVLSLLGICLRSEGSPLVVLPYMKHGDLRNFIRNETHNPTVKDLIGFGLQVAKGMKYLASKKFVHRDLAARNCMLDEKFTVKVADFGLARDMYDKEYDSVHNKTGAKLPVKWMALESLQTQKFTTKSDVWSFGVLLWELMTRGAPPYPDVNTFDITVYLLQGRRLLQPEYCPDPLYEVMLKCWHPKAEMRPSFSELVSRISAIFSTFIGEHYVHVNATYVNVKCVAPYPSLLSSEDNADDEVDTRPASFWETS

[8] = target: SRC (Homo sapiens, UniProt P12931); conditions: 10 μM
[9] = target: ABL2 (Homo sapiens, UniProt P42684); conditions: 10 μM
[10] = target: T3, FLT3 (Homo sapiens, UniProt P36888); experiment: biochemical; conditions: read-out: Percent control
T3 sequence (P36888 27-993): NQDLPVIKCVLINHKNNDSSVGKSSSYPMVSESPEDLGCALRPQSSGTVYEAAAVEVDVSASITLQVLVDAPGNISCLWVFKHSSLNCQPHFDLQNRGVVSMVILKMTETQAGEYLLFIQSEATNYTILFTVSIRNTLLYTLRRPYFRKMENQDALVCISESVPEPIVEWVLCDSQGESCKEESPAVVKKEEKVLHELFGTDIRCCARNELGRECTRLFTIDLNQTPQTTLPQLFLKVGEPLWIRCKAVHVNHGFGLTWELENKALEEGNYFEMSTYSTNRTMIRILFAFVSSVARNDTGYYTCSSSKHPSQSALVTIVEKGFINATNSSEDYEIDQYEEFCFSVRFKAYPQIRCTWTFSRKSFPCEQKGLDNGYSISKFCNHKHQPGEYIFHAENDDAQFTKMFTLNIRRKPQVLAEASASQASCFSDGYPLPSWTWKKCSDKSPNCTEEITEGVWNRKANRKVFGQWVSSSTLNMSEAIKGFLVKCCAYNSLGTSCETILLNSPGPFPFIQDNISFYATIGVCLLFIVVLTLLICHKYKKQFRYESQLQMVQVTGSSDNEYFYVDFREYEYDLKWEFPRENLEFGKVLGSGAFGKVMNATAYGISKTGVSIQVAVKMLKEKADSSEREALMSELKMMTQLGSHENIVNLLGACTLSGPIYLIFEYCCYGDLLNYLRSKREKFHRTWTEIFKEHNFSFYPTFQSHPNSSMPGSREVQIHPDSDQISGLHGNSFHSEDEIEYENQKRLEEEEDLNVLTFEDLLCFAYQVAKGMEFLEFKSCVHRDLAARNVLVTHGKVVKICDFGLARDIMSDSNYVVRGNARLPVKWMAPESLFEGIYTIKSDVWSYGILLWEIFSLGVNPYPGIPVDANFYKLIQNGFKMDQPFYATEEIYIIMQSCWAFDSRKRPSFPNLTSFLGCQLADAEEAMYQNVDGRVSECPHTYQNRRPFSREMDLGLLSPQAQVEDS

[11] = target: FYN (Homo sapiens, UniProt P06241); experiment: biochemical; conditions: read-out: Percent control
Chain of FYN (P06241 whole entry): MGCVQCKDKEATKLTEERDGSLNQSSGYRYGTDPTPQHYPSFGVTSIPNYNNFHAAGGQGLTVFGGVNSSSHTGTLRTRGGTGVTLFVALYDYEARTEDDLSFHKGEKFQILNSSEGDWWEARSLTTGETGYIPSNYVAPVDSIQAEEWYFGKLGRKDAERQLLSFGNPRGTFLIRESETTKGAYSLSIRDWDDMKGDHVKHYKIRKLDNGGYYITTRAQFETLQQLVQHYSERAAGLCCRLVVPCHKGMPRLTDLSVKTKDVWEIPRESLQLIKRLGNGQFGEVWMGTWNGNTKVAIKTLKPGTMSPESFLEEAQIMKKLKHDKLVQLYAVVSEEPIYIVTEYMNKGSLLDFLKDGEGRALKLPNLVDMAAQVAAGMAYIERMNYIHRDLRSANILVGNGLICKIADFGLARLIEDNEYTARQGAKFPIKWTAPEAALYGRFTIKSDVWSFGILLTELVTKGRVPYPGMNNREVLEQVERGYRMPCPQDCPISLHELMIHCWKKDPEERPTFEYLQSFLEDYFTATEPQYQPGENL

[12] = target: SYK (Homo sapiens, UniProt P43405); experiment: biochemical; conditions: read-out: Percent control

Chain of TIE2 (Q02763 23-1124): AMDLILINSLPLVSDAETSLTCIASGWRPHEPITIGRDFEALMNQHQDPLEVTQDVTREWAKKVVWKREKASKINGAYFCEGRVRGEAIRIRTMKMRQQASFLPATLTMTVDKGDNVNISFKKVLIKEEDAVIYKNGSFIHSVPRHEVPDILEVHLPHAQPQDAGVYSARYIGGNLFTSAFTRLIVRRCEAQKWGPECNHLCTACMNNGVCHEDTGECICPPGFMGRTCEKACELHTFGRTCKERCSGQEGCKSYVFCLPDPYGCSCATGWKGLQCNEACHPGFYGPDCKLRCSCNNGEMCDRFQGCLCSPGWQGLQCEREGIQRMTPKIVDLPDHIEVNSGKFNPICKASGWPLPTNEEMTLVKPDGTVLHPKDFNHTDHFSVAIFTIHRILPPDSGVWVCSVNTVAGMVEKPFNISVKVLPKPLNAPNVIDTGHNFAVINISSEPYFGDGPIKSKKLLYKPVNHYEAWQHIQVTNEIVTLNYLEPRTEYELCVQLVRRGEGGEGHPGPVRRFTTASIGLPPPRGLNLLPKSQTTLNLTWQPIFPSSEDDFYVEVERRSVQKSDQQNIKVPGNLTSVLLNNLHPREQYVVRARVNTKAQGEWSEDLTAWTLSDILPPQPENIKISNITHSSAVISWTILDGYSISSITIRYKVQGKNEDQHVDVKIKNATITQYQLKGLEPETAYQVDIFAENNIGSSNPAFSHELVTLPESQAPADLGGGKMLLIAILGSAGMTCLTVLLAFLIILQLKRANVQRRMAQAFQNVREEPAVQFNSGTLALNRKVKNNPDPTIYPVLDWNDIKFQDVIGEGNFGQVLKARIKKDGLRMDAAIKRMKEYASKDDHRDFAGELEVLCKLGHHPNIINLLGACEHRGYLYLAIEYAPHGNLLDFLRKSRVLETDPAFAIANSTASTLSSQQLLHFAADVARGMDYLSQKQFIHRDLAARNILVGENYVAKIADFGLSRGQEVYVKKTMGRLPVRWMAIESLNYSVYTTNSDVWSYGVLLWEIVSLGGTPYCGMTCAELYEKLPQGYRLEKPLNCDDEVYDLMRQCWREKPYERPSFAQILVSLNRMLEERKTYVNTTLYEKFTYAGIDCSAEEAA
T1 sequence (P09619 33-1106): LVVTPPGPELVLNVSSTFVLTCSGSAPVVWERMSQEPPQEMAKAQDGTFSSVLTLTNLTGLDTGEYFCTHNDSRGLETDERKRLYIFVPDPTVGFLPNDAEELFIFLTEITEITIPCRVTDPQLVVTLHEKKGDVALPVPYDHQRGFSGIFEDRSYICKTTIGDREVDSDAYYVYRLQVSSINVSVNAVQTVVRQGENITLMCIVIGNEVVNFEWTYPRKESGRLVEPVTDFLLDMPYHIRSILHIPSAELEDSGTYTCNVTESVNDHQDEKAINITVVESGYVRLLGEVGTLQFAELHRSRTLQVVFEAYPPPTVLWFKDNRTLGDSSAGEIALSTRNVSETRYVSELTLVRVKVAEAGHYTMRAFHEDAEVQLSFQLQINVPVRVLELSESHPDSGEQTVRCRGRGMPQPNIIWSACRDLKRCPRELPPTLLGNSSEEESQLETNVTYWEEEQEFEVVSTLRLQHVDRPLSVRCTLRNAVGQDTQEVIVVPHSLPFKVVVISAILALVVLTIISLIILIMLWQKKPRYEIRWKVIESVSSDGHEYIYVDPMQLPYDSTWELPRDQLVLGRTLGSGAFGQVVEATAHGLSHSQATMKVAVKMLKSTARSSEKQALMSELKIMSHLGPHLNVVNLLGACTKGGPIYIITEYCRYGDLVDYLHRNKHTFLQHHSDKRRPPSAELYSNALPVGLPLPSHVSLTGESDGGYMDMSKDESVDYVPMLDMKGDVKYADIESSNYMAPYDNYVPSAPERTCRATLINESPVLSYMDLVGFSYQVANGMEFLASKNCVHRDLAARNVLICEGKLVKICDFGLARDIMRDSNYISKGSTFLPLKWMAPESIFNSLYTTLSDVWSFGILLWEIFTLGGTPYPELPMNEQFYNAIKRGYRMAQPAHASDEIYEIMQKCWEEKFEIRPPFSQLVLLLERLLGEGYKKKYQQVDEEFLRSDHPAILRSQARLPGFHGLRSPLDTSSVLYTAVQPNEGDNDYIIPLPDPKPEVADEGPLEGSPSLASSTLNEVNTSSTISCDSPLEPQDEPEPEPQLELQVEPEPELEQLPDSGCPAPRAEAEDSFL

| Compound | remaining activity at 10 µM [1] | Percent control [2] | remaining activity at 10 µM [3] | remaining activity at 10 µM [4] | Percent control [5] | Percent control [6] | Percent control [7] | Percent control [8] | Percent control [9] | remaining activity at 10 µM [10] | remaining activity at 10 µM [11] | remaining activity at 10 µM [12] |
| --- | --- | --- | --- | --- | --- | --- | --- | --- | --- | --- | --- | --- |
| Cc1ccc(NC(=O)c2ccc(CN3CCN(C)CC3)cc2)cc1Nc1nccc(-c2cccnc2)n1 [Imatinib, reference compound] | 0.1% | 100% | 0.1% | 0.1% | 100% |  |  |  |  |  |  |  |
| Cc1ccc(NC(=O)c2ccc(CN3CCN(C)CC3)cc2)cc1Nc1nccc(-c2cccnc2)[n+]1[Pt-2]1([Cl])[NH2+]C2CCCCC2[NH2+]1 (stereo not shown) [1b, oxaliplatin-imatinib] |  | 94% |  |  | 100% | 0.1% | 100% |  |  |  |  |  |
| COc1cc2c(Nc3ccc(Br)cc3F)[n+]([Pt-2]3([Cl])[NH2+]C4CCCCC4[NH2+]3)cnc2cc1OCC1CCN(C)CC1 (stereo not shown) [3b, oxaliplatin-vandetanib] |  | 49% |  |  | 99% |  |  | 0.5% | 20% |  |  |  |
| C#Cc1cccc(Nc2c3cc(OCCOC)c(OCCOC)cc3nc[n+]2[Pt@SP2-2]([NH3+])([NH3+])[Cl])c1 [2a, cisplatin-erlotinib] |  | 94% |  |  | 89% | 85% | 92% | 66% | 46% |  |  |  |
| COc1cc2c(Nc3ccc(Br)cc3F)ncnc2cc1OCC1CCN(C)CC1 [Vandetanib, reference compound] |  |  |  |  |  |  |  |  |  | 7.8% | 3.5% | 100% |
| C#Cc1cccc(Nc2ncnc3cc(OCCOC)c(OCCOC)cc23)c1 [Erlotinib] | 12.3% |  | 23.7% | 14.5% |  |  |  |  |  | 10.7% | 100% | 100% |
